Measurements from PubChem BioAssay AID330 (DTP/NCI, 2004).
Several values for one entry are separate records, joined by “and”; a condition that tells them apart may be missing. Equal values may be shown once. Toxic doses and inconclusive results are not listed. How the source made its calls: active means survival T/C of 150% or more; inactive means T/C below 125% in these data.

Tested on: P388 leukemia ip, CD2F1 mice, survival T/C
Assay: NCI In Vivo Anticancer Drug Screen. Data for tumor model P388 Leukemia (intraperitoneal) in CD2F1 (CDF1) mice
Details: endpoint: median survival time, higher = longer survival
Procedure, shortened: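 Mice carrying the transplanted tumor received test compound or vehicle. Survival was recorded in each group, and the value is the treated-group measurement divided by that of the vehicle-treated control group.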

[1] = dose: 50.0 mg/kg/injection, schedule: Q01DX009 (ip), vehicle: saline
[2] = dose: 100.0 mg/kg/injection, schedule: Q01DX009 (ip), vehicle: saline
[3] = dose: 200.0 mg/kg/injection, schedule: Q01DX009 (ip), vehicle: saline
[4] = dose: 60.0 mg/kg/injection, schedule: Q01DX005 (ip), vehicle: saline with Tween-80
[5] = dose: 120.0 mg/kg/injection, schedule: Q01DX005 (ip), vehicle: saline with Tween-80
[6] = dose: 240.0 mg/kg/injection, schedule: Q01DX005 (ip), vehicle: saline with Tween-80
[7] = dose: 100.0 mg/kg/injection, schedule: Q04DX003 (ip), vehicle: Klucel (hydroxypropylcellulose) (HPC)
[8] = dose: 200.0 mg/kg/injection, schedule: Q04DX003 (ip), vehicle: Klucel (hydroxypropylcellulose) (HPC)
[9] = dose: 400.0 mg/kg/injection, schedule: Q04DX003 (ip), vehicle: Klucel (hydroxypropylcellulose) (HPC)
[10] = dose: 50.0 mg/kg/injection, schedule: Q01DX009 (ip), vehicle: Klucel (hydroxypropylcellulose) (HPC)
[11] = dose: 100.0 mg/kg/injection, schedule: Q01DX009 (ip), vehicle: Klucel (hydroxypropylcellulose) (HPC)
[12] = dose: 200.0 mg/kg/injection, schedule: Q01DX009 (ip), vehicle: Klucel (hydroxypropylcellulose) (HPC)
[13] = dose: 60.0 mg/kg/injection, schedule: Q01DX005 (ip), vehicle: Klucel + Tween-80
[14] = dose: 120.0 mg/kg/injection, schedule: Q01DX005 (ip), vehicle: Klucel + Tween-80
[15] = dose: 25.0 mg/kg/injection, schedule: Q01DX005 (ip), vehicle: Klucel (hydroxypropylcellulose) (HPC)
[16] = dose: 50.0 mg/kg/injection, schedule: Q01DX005 (ip), vehicle: Klucel (hydroxypropylcellulose) (HPC)
[17] = dose: 100.0 mg/kg/injection, schedule: Q01DX005 (ip), vehicle: Klucel (hydroxypropylcellulose) (HPC)
[18] = dose: 50.0 mg/kg/injection, schedule: Q01DX009 (ip), vehicle: saline with Tween-80
[19] = dose: 100.0 mg/kg/injection, schedule: Q01DX009 (ip), vehicle: saline with Tween-80
[20] = dose: 60.0 mg/kg/injection, schedule: Q01DX005 (ip), vehicle: saline
[21] = dose: 120.0 mg/kg/injection, schedule: Q01DX005 (ip), vehicle: saline
[22] = dose: 240.0 mg/kg/injection, schedule: Q01DX005 (ip), vehicle: saline
[23] = dose: 12.5 mg/kg/injection, schedule: Q01DX005 (ip), vehicle: Klucel (hydroxypropylcellulose) (HPC)

Measured: T/C

CC1=NN(c2cccc(S(=O)(=O)O)c2)C(=O)C1
inactive: dose: 25.0 mg/kg/injection, schedule: Q01DX009 (ip), vehicle: saline sonified 100 % of control | dose: 50.0 mg/kg/injection, schedule: Q01DX009 (ip), vehicle: saline sonified 100 % of control | [1] 89 % of control | dose: 100.0 mg/kg/injection, schedule: Q01DX009 (ip), vehicle: saline sonified 100 % of control | [2] 95 % of control | [3] 96 % of control

CCOC(=O)Cc1ccc(N(CCO)CCO)cc1
inactive: [4] 100 % of control | [5] 103 % of control | [6] 101 % of control

N#CC1=Cc2ccccc2OC1
inactive: [7] 108 % of control | [8] 108 % of control | [9] 105 % of control

CCc1nc(N)nc(N)c1-c1ccc(NCCCCCCCCCCCCN)c([N+](=O)[O-])c1
inactive: dose: 15.0 mg/kg/injection, schedule: Q01DX005 (ip), vehicle: saline with Tween-80 117 % of control | dose: 30.0 mg/kg/injection, schedule: Q01DX005 (ip), vehicle: saline with Tween-80 107 % of control | [5] 91 % of control

COc1ccc(Cc2n[nH]c(=O)c3c(C)[nH]nc23)cc1
inactive: [10] 93 % of control | [11] 100 % of control | [12] 119 % of control

COC(=O)c1cc(=O)n(-c2cccc(OC)c2)c(SC)n1
inactive: dose: 25.0 mg/kg/injection, schedule: Q04DX002 (ip), vehicle: Klucel (hydroxypropylcellulose) (HPC) 107 % of control | dose: 50.0 mg/kg/injection, schedule: Q04DX002 (ip), vehicle: Klucel (hydroxypropylcellulose) (HPC) 103 % of control | dose: 100.0 mg/kg/injection, schedule: Q04DX002 (ip), vehicle: Klucel (hydroxypropylcellulose) (HPC) 104 % of control and 105 % of control

O=C(O)c1cnc2cc(F)ccc2c1Nc1ccc2c(c1)OCO2
inactive: [13] 97 % of control | [14] 94 % of control | dose: 240.0 mg/kg/injection, schedule: Q01DX005 (ip), vehicle: Klucel + Tween-80 89 % of control

COC(=O)c1nnn(-c2ccccc2)n1
inactive: [15] 99 % of control | [16] 101 % of control | [17] 101 % of control

Cc1cccc(Cl)c1NC(=O)NCCCN1CCCCC1C (configuration not stated)
inactive: [4] 94 % of control | [5] 87 % of control

CCCOCC(O)CNCCN (configuration not stated)
inactive: [10] 100 % of control | [11] 102 % of control | [12] 109 % of control

COc1c(-c2ccc3c(c2)OCO3)oc2cc(O)cc(O)c2c1=O
inactive: dose: 6.25 mg/kg/injection, schedule: Q01DX005 (ip), vehicle: saline with Tween-80 100 % of control | dose: 12.5 mg/kg/injection, schedule: Q01DX005 (ip), vehicle: saline with Tween-80 100 % of control | dose: 25.0 mg/kg/injection, schedule: Q01DX005 (ip), vehicle: saline with Tween-80 104 % of control | dose: 100.0 mg/kg/injection, schedule: Q01DX005 (ip), vehicle: saline with Tween-80 89 % of control | dose: 200.0 mg/kg/injection, schedule: Q01DX005 (ip), vehicle: saline with Tween-80 105 % of control

CC(=O)N(c1nc2ccccc2n1C)C(C)C
inactive: dose: 25.0 mg/kg/injection, schedule: Q01DX009 (ip), vehicle: saline with Tween-80 110 % of control | [18] 98 % of control | [19] 115 % of control

NC1[N-]C(C2CCCC[N-]2)CC2C(Cl)CCCC12.O=[N+]([O-])O.O=[N+]([O-])O.[Cu+2] (configuration not stated)
inactive: dose: 6.25 mg/kg/injection, schedule: Q04DX002 (ip), vehicle: suspension in saline 101 % of control | dose: 12.5 mg/kg/injection, schedule: Q04DX002 (ip), vehicle: suspension in saline 111 % of control

CCCCCN(CCCCC)CC(C)(O)CNc1cc(OC)cc2cccnc12 (configuration not stated)
inactive: dose: 50.0 mg/kg/injection, schedule: Q01DX005 (ip), vehicle: saline 95 % of control | dose: 100.0 mg/kg/injection, schedule: Q01DX005 (ip), vehicle: saline 87 % of control

COc1cc(OC)c(C(=O)CCN(C)C)cc1OC
inactive: [20] 109 % of control | [21] 116 % of control | [22] 114 % of control

O=C(O)c1cccc2c1-c1ccccc1C2=O
inactive: [23] 94 % of control | [15] 99 % of control | [16] 97 % of control | [17] 100 % of control | dose: 200.0 mg/kg/injection, schedule: Q01DX005 (ip), vehicle: Klucel (hydroxypropylcellulose) (HPC) 103 % of control

CC1(C)CCC2(C(=O)OC3OC(CO)C(O)C(O)C3O)CCC3(C)C(=CCC4C5(C)CCC(OC6OC(CO)C(O)C(OC7OC(CO)C(O)C(O)C7O)C6O)C(C)(C)C5CCC43C)C2C1 (configuration not stated)
inactive: dose: 6.25 mg/kg/injection, schedule: Q01DX005 (ip), vehicle: Klucel (hydroxypropylcellulose) (HPC) 102 % of control | [23] 98 % of control | [15] 116 % of control | [16] 105 % of control

C/C(N)=N/OC(c1ccccc1)(c1ccccc1)c1ccccc1
inactive: dose: 50.0 mg/kg/injection, schedule: Q01DX005 (ip), vehicle: Klucel + Tween-80 94 % of control | dose: 100.0 mg/kg/injection, schedule: Q01DX005 (ip), vehicle: Klucel + Tween-80 90 % of control | dose: 200.0 mg/kg/injection, schedule: Q01DX005 (ip), vehicle: Klucel + Tween-80 93 % of control

C/C(=N\N=Nc1ccc(N(C)C)cc1)c1ccccc1
inactive: [13] 100 % of control | [14] 99 % of control

Cc1cc(Cl)ccc1S(=O)(=O)Cl
inactive: [18] 104 % of control | [19] 103 % of control

Fc1cccc(F)n1
inactive: dose: 25.0 mg/kg/injection, schedule: Q04DX003 (ip), vehicle: water 91 % of control | dose: 50.0 mg/kg/injection, schedule: Q04DX003 (ip), vehicle: water 103 % of control | dose: 100.0 mg/kg/injection, schedule: Q04DX003 (ip), vehicle: water 100 % of control | dose: 200.0 mg/kg/injection, schedule: Q04DX003 (ip), vehicle: water 100 % of control | dose: 400.0 mg/kg/injection, schedule: Q04DX003 (ip), vehicle: water 104 % of control

Cc1ncc(C(O)c2ccc(N(C)C)cc2)n1Cc1ccccc1 (configuration not stated)
inactive: [4] 98 % of control | [5] 95 % of control | [6] 95 % of control

O=C1NC(c2ccccc2)(c2ccccc2)C(=O)N1CCS
inactive: dose: 25.0 mg/kg/injection, schedule: Q04DX003 (ip), vehicle: Klucel (hydroxypropylcellulose) (HPC) 99 % of control and 106 % of control | dose: 50.0 mg/kg/injection, schedule: Q04DX003 (ip), vehicle: Klucel (hydroxypropylcellulose) (HPC) 100 % of control | [7] 100 % of control and 114 % of control | [8] 104 % of control and 108 % of control | [9] 112 % of control and 114 % of control

C[P+]12CN3CN(CN(C3)C1)C2
inactive: [1] 107 % of control | [2] 107 % of control | [3] 101 % of control

C=CC1OCCC(C)O1 (configuration not stated)
inactive: [20] 99 % of control | [21] 100 % of control | [22] 97 % of control
